From patent publication US20240279202A1 (NURIX THERAPEUTICS, INC., priority 2021, published 2024)

Target: T1, ITK (Homo sapiens, UniProt Q08881)
T1 sequence (Q08881 1-620): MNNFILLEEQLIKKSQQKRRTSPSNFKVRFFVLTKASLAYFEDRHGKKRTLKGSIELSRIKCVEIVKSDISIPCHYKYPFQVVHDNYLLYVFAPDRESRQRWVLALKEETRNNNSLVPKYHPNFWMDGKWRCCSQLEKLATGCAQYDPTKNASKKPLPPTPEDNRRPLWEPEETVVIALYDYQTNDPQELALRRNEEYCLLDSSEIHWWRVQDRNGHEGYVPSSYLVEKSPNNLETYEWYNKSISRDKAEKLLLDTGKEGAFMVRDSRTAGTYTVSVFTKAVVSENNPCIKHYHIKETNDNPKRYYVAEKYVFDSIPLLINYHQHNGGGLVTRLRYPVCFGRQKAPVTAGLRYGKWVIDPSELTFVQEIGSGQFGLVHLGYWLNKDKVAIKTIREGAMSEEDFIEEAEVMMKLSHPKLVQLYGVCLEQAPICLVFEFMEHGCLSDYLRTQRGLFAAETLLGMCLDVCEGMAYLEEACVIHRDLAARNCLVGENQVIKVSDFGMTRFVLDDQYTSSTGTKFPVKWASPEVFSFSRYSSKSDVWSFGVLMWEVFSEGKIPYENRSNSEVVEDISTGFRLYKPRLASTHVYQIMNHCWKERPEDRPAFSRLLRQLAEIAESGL
Assay: ITK degradation HiBiT assay
Assay type: cell-based
Design: expressed in transfected cells; host or cells: Molt4 (ATCC CRL-1552), monoclonal clone 1C10, engineered to carry the HiBiT tag
Details: 4 hrs; for Dmax: MOLT-4, C-terminal HiBiT-tagged Molt4 cells; for DC50: C-terminal HiBiT-tagged Molt4 cells
Procedure, shortened: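 C-terminal HiBiT-tagged Molt4 cells (clone 1C10) treated 4 h at 32° C with an 11-point, 5-fold compound dilution series (0.5% DMSO). HiBiT lytic detection with LgBiT then luminescence read; % ITK remaining versus concentration fit by four-parameter variable-slope model to give DC50 and Dmax.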

| Compound | Dmax [%] | DC50 [nM] |
| --- | --- | --- |
| C[C@@]12Cc3[nH]nc(-c4cc5cc(F)c(C(=O)N6CCN(C[C@@H]7CCN(c8ccc(C9CCC(=O)NC9=O)cc8)C7)CC6)cc5[nH]4)c3C[C@@H]1C2(F)F (stereo partly drawn) [Compound 146] | 73 | – |
| C[C@@]12Cc3[nH]nc(-c4cc5cc(F)c(C(=O)N6CCN(C[C@H]7CCN(c8ccc(C9CCC(=O)NC9=O)cc8)C7)CC6)cc5[nH]4)c3C[C@@H]1C2(F)F (stereo partly drawn) [Compound 145] | 75 | – |
| CN(C(=O)CN1CC2(CCN(c3ccc4c(c3)C(=O)N(C3CCC(=O)NC3=O)C4=O)C2)C1)c1ccc2cc(-c3n[nH]c4c3C[C@@H]3C(F)(F)[C@]3(C)C4)[nH]c2c1 (stereo partly drawn) [Compound 71] | 70 | 5.2 |
| Cn1c(=O)n(C2CCC(=O)NC2=O)c2cccc(N3CCC(CN4CC(n5cc(NC(=O)c6n[nH]c7c6C[C@@H]6C(F)(F)[C@]6(C)C7)cn5)C4)CC3)c21 (stereo partly drawn) [Compound 57, (4aS,5aR)-N-(1-(1-((1-(1-(2,6-dioxopiperidin-3-yl)-3-methyl-2-oxo-2,3-dihydro-1H-benzo[d]imidazol-4-yl)piperidin-4-yl)methyl)azetidin-3-yl)-1H-pyrazol-4-yl)-5,5-difluoro-5a-methyl-1,4,4a,5,5a,6-hexahydrocyclopropa[f]indazole-3-carboxamide] | 90 | < 0.01 |
| CC1(C)CCc2c(C(=O)Nc3cnn([C@H]4CC[C@H](C(=O)N5CCN(c6ccc(C7CCC(=O)NC7=O)cn6)CC5)CC4)c3)n[nH]c2C1 (mixture of isomers) [Compound 175] | 65 | – |
| C[C@@]12Cc3[nH]nc(-c4cc5ccc(N6CCC7(CCN(C(=O)C8CCN(c9ccc(C%10CCC(=O)NC%10=O)cn9)CC8)CC7)C6=O)cc5[nH]4)c3C[C@@H]1C2(F)F (stereo partly drawn) [Compound 24, 3-(6-(4-(2-(2-((4aS,5aR)-5,5-difluoro-5a-methyl-1,4,4a,5,5a,6-hexahydrocyclopropa[f]indazol-3-yl)-1H-indol-6-yl)-1-oxo-2,8-diazaspiro[4.5]decane-8-carbonyl)piperidin-1-yl)pyridin-3-yl)piperidine-2,6-dione] | – | 0.01 |
| Cn1c(=O)n(C2CCC(=O)NC2=O)c2cccc(N3CCC(C(=O)N4CC(n5cc(NC(=O)c6n[nH]c7c6C[C@@H]6C(F)(F)[C@]6(C)C7)cn5)C4)CC3)c21 (stereo partly drawn) [Compound 56, (4aS,5aR)-N-(1-(1-(1-(1-(2,6-dioxopiperidin-3-yl)-3-methyl-2-oxo-2,3-dihydro-1H-benzo[d]imidazol-4-yl)piperidine-4-carbonyl)azetidin-3-yl)-1H-pyrazol-4-yl)-5,5-difluoro-5a-methyl-1,4,4a,5,5a,6-hexahydrocyclopropa[f]indazole-3-carboxamide] | 64 | 0.013 |

The remaining lines, values ahead:

| Dmax [%] | DC50 [nM] | Compound |
| --- | --- | --- |
| 85 | – | CC1(C)CCc2c(-c3cc4ccc(C(=O)N5CCC(CN6CCc7cc(C8CCC(=O)NC8=O)ccc7C6)CC5)cc4[nH]3)n[nH]c2C1 (stereo not drawn) [Compound 193] |
| 53 | 36 | CC1(C)CCc2c(-c3cc4ccc(C(=O)N5CCC(CN6CCN(c7cc(C8CCC(=O)NC8=O)ccn7)CC6)CC5)cc4[nH]3)n[nH]c2C1 (stereo not drawn) [Compound 214, 3-{2-[4-({1-[2-(6,6-dimethyl-1,4,5,7-tetrahydroindazol-3-yl)-1H-indole-6-carbonyl]piperidin-4-yl}methyl)piperazin-1-yl]pyridin-4-yl}piperidine-2,6-dione] |
| 85 | – | C[C@@H](C(=O)N(C)c1cc2[nH]c(-c3n[nH]c4c3CCC(C)(C)C4)cc2cc1F)N1CCN(CC2CCN(c3ccc(C4CCC(=O)NC4=O)cn3)CC2)CC1 (stereo partly drawn) [Compound 188] |
| 86 | – | C[C@H]1CN(c2ccc(C3CCC(=O)NC3=O)cn2)CCN1CC1CCN(C(=O)c2ccc3cc(-c4n[nH]c5c4CCC(C)(C)C5)[nH]c3c2)CC1 (stereo partly drawn) [Compound 190] |
